Legend:
serotonin (5-HT) uptake = biological target: T1, serotonin (5-HT) uptake (Rattus norvegicus, UniProt P31652); experiment: Serotonin (5-HT) uptake inhibitory activity in rat brain synaptosome; format: biochemical; details: rat frontal cortex synaptosome, tritium-labeled 5-HT 8 nM; read-out: IC50 (nM), serotonin (5-HT) uptake inhibition
T1 construct: used as crude synaptosomal fraction; from tissue; host or cells: rat frontal cortex, crude synaptosomal fraction
Method: Male Wistar rats were decapitated, each brain was removed, and the frontal cortex was cut out. […] The homogenate was centrifuged at 1000 g at 4° C. for 10 minutes, and the supernatant was further centrifuged at 20000 g at 4° C. for 20 minutes. The pellet was suspended in an incubation buffer (20 mM Hepes buffer (pH 7.4) containing 10 mM glucose, 145 mM sodium chloride, 4.5 mM potassium chloride, 1.2 mM magnesium chloride and 1.5 mM calcium chloride) and used as crude synaptosomal fraction.
Each well of a 96-well round-bottom plate was used for the uptake reaction in a total volume of 200 μL solution containing purgurin (final concentration 10 μM) and ascorbic acid (final concentration 0.2 mg/mL). In other words, solvent, unlabeled 5-HT or step-diluted test compound was added to each well, and one-tenth of the final volume of the synaptosomal fraction was added to each well, followed by pre-incubation at 37° C. for 10 minutes, and then tritium-labeled 5-HT solution (final concentration 8 nM) was added and the uptake reaction was initiated at 37° C. After 10 minutes, the uptake reaction was terminated by suction filtration onto a 96-well glass fiber filter plate. The filters were rinsed with cold physi-ological saline solution, dried thoroughly, and micro scintillation 0 (Perkin-Elmer) was added thereto. Then, the residual radioactivity on the filters was measured.
The uptake value when only solvent was added was set as 100%, the uptake value when unlabeled 5-HT (final concentration 10 μM) was added as 0% (nonspecific uptake value), and the 50% inhibitory concentration was calculated from the concentration of the test compound and its inhibitory activity.

CYP2C9 = biological target: T2, CYP2C9 (Homo sapiens, UniProt P11712); experiment: CYP inhibition test (1): inhibition rate (%) at one concentration, CYP2C9; format: in vitro ADME; details: human liver microsomes, pH 7.4, probe diclofenac (0.005 mmol/L); test compound 0.01 mmol/L, human liver microsome 0.1 mg/mL, substrate diclofenac, 37° C. 10 minutes; read-out: inhibition rate (%) 2C9
T2 construct: a human liver microsome solution containing three CYP-specific substrates; from tissue; host or cells: human liver microsomes
T2 sequence (P11712 whole entry): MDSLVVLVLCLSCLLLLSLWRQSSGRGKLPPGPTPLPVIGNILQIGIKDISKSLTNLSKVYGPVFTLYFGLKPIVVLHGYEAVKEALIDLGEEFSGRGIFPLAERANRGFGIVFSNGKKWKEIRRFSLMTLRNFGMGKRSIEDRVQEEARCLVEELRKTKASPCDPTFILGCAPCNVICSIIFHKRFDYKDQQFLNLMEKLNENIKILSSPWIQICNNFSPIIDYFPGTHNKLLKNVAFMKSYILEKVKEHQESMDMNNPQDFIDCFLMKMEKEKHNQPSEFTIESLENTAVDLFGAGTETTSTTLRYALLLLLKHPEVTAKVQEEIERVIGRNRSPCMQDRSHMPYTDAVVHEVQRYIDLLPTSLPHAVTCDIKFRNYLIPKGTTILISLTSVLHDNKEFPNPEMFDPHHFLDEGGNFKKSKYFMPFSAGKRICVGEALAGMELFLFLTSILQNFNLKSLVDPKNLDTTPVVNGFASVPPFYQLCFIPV
Method: A metabolic reaction was initiated by adding and mixing a test compound solution (final concentration 0.01 mmol/L) and a NADH/NADPH solution (final concentration 1 mmol/L) to a human liver microsome solution containing three CYP-specific substrates (final concentration 100 mmol/L potassium phosphate buffer solution (pH 7.4), 5 mmol/L magnesium chloride, 0.1 mg/mL human liver microsome, 0.005 mmol/L diclofenac (for CYP2C9), 0.01 mmol/L bufuralol (for […]), 0.005 mmol/L midazolam (for CYP3A4)). As an internal standard solution, a solution of each of stable isotopes of the metabolites (50 ng/mL [13C6] hydroxy diclofenac, 5 ng/mL [2H9] hydroxy bufuralol, and 5 ng/mL [13C6] hydroxy midazolam (all stable isotopes)) in methanol was prepared and used as a quenching solution.
Specifically, a metabolic reaction was initiated by adding and mixing 2 μL of a solution of a test compound in acetonitrile (or acetonitrile as a control) to 178 μL of a human liver microsome solution in ice water, followed by preincubation at 37° C. for 1 minute, and then adding 20 μL of a NADH/NADPH solution thereto. After incubation at 37° C. for 10 minutes, 50 μL of the reaction mixture was taken, and then it was added and mixed to 500 μL of a quenching solution to quech the reaction. The mixture was centrifuged (6130 g, 4° C., 10 minutes) and the supernatant was used as a sample for LC-MS/MS.
Peak area ratio ([peak area of metabolite]/[peak area of corresponding stable isotope]) was calculated for a metabolite and a stable isotope of the metabolite as measurement object. By comparing the peak area ratio of each test compound solution with that of the control, the inhibition rate (%) of each CYP species for each test compound was calculated from (1-[peak area ratio of each test compound solution]/[peak area ratio of control])×100.

[1] = Protein binding rate test (human serum, equilibrium dialysis); format: in vitro ADME; details: test compound 0.001 mmol/L, equilibrium dialysis 37° C. 6 hours
Method: A serum sample was prepared by adding a test compound solution to a human serum (final concentration of the test compound: 0.001 mmol/L). The serum sample and Dulbecco's Phosphate-Buffered Saline (D-PBS(−)) were added to the wells separated by a dialysis membrane to start the reaction. A solution of the internal standard in methanol was prepared and used as a quenching solution.
Specifically, the dialysis membrane (cut-off molecular weight 12000-14000) was pre-conditioned by immersing it in distilled water, followed by 20% ethanol. Then, the membrane was washed with D-PBS(−) and set in an equilibrium dialysis kit. Then, 150 μL of D-PBS(−) was added to one part of each well divided by the dialysis membrane, and 150 μL of serum sample was added to the other part. After sealing all wells and incubation at 37° C. for 6 hours, 30 μL from the serum side and 90 μL from the PBS side of each well were collected and mixed with 90 μL of D-PBS(−) or 30 μL of blank serum and 480 μL of a quenching solution to quench the reaction.
The mixture was centrifuged (6130 g, 4° C., 10 minutes) and the supernatant was used as a sample for LC-MS/MS.
Peak area ratio ([peak area of test compound]/[peak area of internal standard]) was calculated for the test compound and the internal standard. By comparing the peak area ratio of the PBS side for each test compound with that of the serum side, the protein binding rate (%) of each test compound was calculated from (1-[peak area ratio of PBS side]/[peak area ratio of serum side])×100.

T1 sequence (P31652 whole entry): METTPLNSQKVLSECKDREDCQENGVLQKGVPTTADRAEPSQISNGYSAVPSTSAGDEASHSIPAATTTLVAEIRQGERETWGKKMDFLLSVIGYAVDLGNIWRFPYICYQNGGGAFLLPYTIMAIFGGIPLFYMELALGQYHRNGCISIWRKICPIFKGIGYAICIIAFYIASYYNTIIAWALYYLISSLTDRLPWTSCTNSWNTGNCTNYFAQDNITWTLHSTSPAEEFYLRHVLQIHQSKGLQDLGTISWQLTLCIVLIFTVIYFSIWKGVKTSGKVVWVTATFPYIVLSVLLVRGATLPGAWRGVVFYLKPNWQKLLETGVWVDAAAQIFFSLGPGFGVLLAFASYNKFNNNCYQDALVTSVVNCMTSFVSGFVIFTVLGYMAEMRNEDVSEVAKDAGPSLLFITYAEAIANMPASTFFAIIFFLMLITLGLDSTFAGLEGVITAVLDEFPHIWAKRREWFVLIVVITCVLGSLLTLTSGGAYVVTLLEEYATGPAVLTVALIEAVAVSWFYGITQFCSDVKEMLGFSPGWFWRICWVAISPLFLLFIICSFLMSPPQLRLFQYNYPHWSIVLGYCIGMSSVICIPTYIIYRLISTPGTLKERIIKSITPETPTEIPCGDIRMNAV

Which results are given for `Cc1c(OC(F)(F)CO)ccc(N2CC(C)(C)N[C@H]3CCCC[C@H]32)c1F` [Example 69, 2-(4-((4aS,8aR)-3,3-dimethyloctahydroquinoxalin-1(2H)-yl)-3-fluoro-2-methylphenoxy)-2,2-difluoroethan-1-ol 1/2fumarate]?
IC50 (serotonin (5-HT) uptake): 5.7 nM; inhibition at 10 min, 0.01 mmol/L (CYP2C9): 14.8%; fraction unbound at 6 h, 0.001 mmol/L [1]: 0.211

For `Cc1c(OC(F)(F)CO)ccc(N2CC(C)(C)N[C@@H]3CCCC[C@@H]32)c1F` [Example 70], which IC50 (serotonin (5-HT) uptake) is on record?
Its IC50 is 7 nM.

And the inhibition at 10 min, 0.01 mmol/L (CYP2C9)?
The inhibition at 10 min, 0.01 mmol/L was 15.8%.

And the fraction unbound at 6 h, 0.001 mmol/L [1]?
Its fraction unbound at 6 h, 0.001 mmol/L is 0.195.

For `CC1(C)CN(c2cc(F)c(OC(F)(F)CO)cc2F)[C@H]2CCCC[C@H]2N1` [Example 71], which IC50 (serotonin (5-HT) uptake) is on record?
The IC50 was 57 nM.

What about the inhibition at 10 min, 0.01 mmol/L (CYP2C9) of the same compound?
Its inhibition at 10 min, 0.01 mmol/L is 0.6%.

What about the fraction unbound at 6 h, 0.001 mmol/L [1] of the same compound?
Its fraction unbound at 6 h, 0.001 mmol/L is 0.285.

For `CC1(C)CN(c2cc(F)c(OCCO)cc2F)[C@H]2CCCC[C@H]2N1` [Example 72], which IC50 (serotonin (5-HT) uptake) is on record?
Its IC50 is 55.4 nM.

And the inhibition at 10 min, 0.01 mmol/L (CYP2C9)?
Its inhibition at 10 min, 0.01 mmol/L is 1.7%.

What about the fraction unbound at 6 h, 0.001 mmol/L [1] of the same compound?
The fraction unbound at 6 h, 0.001 mmol/L was 0.766.

With `CC1(C)CN(c2ccc(OC(F)(F)CO)c(F)c2F)[C@H]2CCCC[C@H]2N1` [Example 73] as the compound, how does the IC50 (serotonin (5-HT) uptake) read?
Its IC50 is 8.7 nM.

What about the inhibition at 10 min, 0.01 mmol/L (CYP2C9) of the same compound?
Its inhibition at 10 min, 0.01 mmol/L is 4.8%.

And the fraction unbound at 6 h, 0.001 mmol/L [1]?
The fraction unbound at 6 h, 0.001 mmol/L was 0.267.

For `CC1(C)CN(c2cc(Cl)c(OC(F)(F)CO)cc2F)[C@H]2CCCC[C@@H]2N1` [Example 75], which IC50 (serotonin (5-HT) uptake) is on record?
Its IC50 is 9.4 nM.

What about the inhibition at 10 min, 0.01 mmol/L (CYP2C9) of the same compound?
The inhibition at 10 min, 0.01 mmol/L was 9.1%.

What about the fraction unbound at 6 h, 0.001 mmol/L [1] of the same compound?
The fraction unbound at 6 h, 0.001 mmol/L was 0.277.

For `CC1(C)CN(c2cc(Cl)c(OC(F)(F)CO)cc2F)[C@@H]2CCCC[C@H]2N1` [Example 76], which IC50 (serotonin (5-HT) uptake) is on record?
The IC50 was 98.3 nM.

And the inhibition at 10 min, 0.01 mmol/L (CYP2C9)?
Its inhibition at 10 min, 0.01 mmol/L is 12.6%.

What about the fraction unbound at 6 h, 0.001 mmol/L [1] of the same compound?
The fraction unbound at 6 h, 0.001 mmol/L was 0.308.

Which results are given for `CC1(C)CN(c2cc(F)c(OC(F)(F)CO)cc2F)[C@H]2CCCC[C@@H]2N1` [Example 77]?
IC50 (serotonin (5-HT) uptake): 42.3 nM; inhibition at 10 min, 0.01 mmol/L (CYP2C9): 7.9%; fraction unbound at 6 h, 0.001 mmol/L [1]: 0.411

For `Cc1c(OC(F)(F)CO)ccc(N2CC(C)(C)N[C@H]3CCCC[C@@H]32)c1F` [Example 79], which IC50 (serotonin (5-HT) uptake) is on record?
The IC50 was 37.3 nM.

And the inhibition at 10 min, 0.01 mmol/L (CYP2C9)?
The inhibition at 10 min, 0.01 mmol/L was 8.9%.

What about the fraction unbound at 6 h, 0.001 mmol/L [1] of the same compound?
The fraction unbound at 6 h, 0.001 mmol/L was 0.289.

Which results are given for `CC1(C)CN(c2ccc(OC(F)(F)CO)c(Cl)c2F)[C@@H]2CCCC[C@H]2N1` [Example 80]?
IC50 (serotonin (5-HT) uptake): 62.8 nM; inhibition at 10 min, 0.01 mmol/L (CYP2C9): 2%; fraction unbound at 6 h, 0.001 mmol/L [1]: 0.21

— US20240409519A1, “HYDROGENATED QUINOXALINES” (OTSUKA PHARMACEUTICAL CO., LTD., priority 2021, published 2024)
